Assay [1] has as its system strain Tg5 of C. glabrata. Kind of assay: Sensitivity test by HCA microscopy (chitin level, Calcofluor White). It counts as cell-based, Candida glabrata. Conditions: 6.5 h at 35° C., RPMI medium; for decrease in the chitin level in the wall of the cells: vs cells in the absence of antifungal agent, concentration gradient of Table 1. The protocol: (§1) The strains of Candida were incubated beforehand at 30° C. overnight in a yeast extract medium—peptone dextrose (YPD) (1% bacto peptone, 0.5% yeast extract, 2% glucose, 1.5% agar).
(§2) Yeast colonies were then removed from YPD medium plates and suspended in a 0.9% NaCl saline solution, in which the cell concentration was estimated by optical microscopy using Kova counting slides.
(§3) A dilution was performed to obtain 15 ml of an inoculum at 3×10^6 CFU/ml, in a synthetic complete (SC) medium at pH 7 (2% glucose, 0.5% ammonium sulfate, 0.17% nitrogen-containing yeast base, 0.2% synthetic complete mixture, and 10% HEPES 1.5M pH 7.2) for C. albicans, C. parapsilosis, C. tropicalis and C. krusei, and in a solution of RPMI 1640 pH 7.3 (10% HEPES 1M pH 7.2) for C. glabrata, so as to reduce the formation of septa and clusters.
(§4) 1 ml of inoculum was then added to 2 ml of antifungal solution prepared in an SC or RPMI medium depending on the species of fungus, so as to obtain a final concentration of yeast of 10^6 CFU/ml and the desired concentration of antifungal agent according to table 1.
(§5) After homogenisation, the cultures were placed at 30° C. at 200 rpm, with the exception of cultures of C. glabrata, which were placed at 35° C. at 200 rpm, and incubated for a period of 6.5 h or 24 h.
(§6) After incubation, 100 μl of the culture of fungi obtained above were transferred in triplicate to 96-well plates, and 2.5 μl of Calcofluor White (CFW) were added to each well so as to mark the chitin of the cell walls of the yeasts.
(§7) A step of acquiring images by automated fluorescence microscopy (ScanR screening station, Olympus), using a 40× lens and a CFW filter, made it possible to obtain 30 images per well so as to capture enough cells to provide statistically significant data. These images were analysed by software (ScanR analysis software, Olympus). Firstly, the background noise was processed so as to improve the contrast between the fluorescence of the yeasts and background noise. A pixel threshold was then defined. Segmentation of the fluorescent elements present in each of the acquired images was then performed using an algorithm predefined in the software, making it possible to determine the limit of each element on the basis of the fluorescence intensity of said element. […]
(§8) Each element then corresponding to a yeast, it was thus possible, on the basis of these elements predefined beforehand, to define the fluorescence intensity for each of the yeasts, this intensity being directly correlated with the chitin content of their wall. […]
(§9) The chitin level in the cell wall of the yeasts was then measured by […] analysis (HCA) microscopy, as described in paragraph II of the Examples section, in triplicate for each condition of concentration of fluconazole and without fluconazole. […]

Assay [2] has as its system strain 8/21 of C. parapsilosis. Described as above. The format is cell-based, Candida parapsilosis. The settings on record: vs cells in the absence of antifungal agent; 6.5 h at 30° C., SC medium; concentration gradient of Table 1. The protocol:
as §1
(§10) Yeast colonies were then removed from YPD medium plates and suspended in a 0.9% NaCl saline solution, in which the cell concentration was estimated by optical microscopy using Kova counting slides. […]
as §7, with “A pixel threshold was then defined.” left out
as §8

Assay [3] relates to strain ATCC®6258 of C. krusei. The assay can be described thus: Sensitivity test by HCA microscopy (chitin level, Calcofluor White; cell count). It counts as cell-based, Candida krusei. The protocol: as §1, §2, §3, §4, §5, §6
(§11) A step of acquiring images by automated fluorescence microscopy (ScanR screening station, Olympus), using a 40× lens and a CFW filter, made it possible to obtain 30 images per well so as to capture enough cells to provide statistically significant data. These images were analysed by software (ScanR analysis software, Olympus). Firstly, the background noise was processed so as to improve the contrast between the fluorescence of the yeasts and background noise. A pixel threshold was then defined. Segmentation of the fluorescent elements present in each of the acquired images was then performed using an algorithm predefined in the software, making it possible to determine the limit of each element on the basis of the fluorescence intensity of said element. A size parameter was then applied to select the yeasts and eliminate the aggregates and the fluorescent debris.
(§12) Each element then corresponding to a yeast, it was thus possible, on the basis of these elements predefined beforehand, to define the fluorescence intensity for each of the yeasts, this intensity being directly correlated with the chitin content of their wall.
(§13) On the basis of said defined elements, it was also possible to automatically count the yeasts,
The strain ATCC®6258 of C. krusei was cultivated as described in paragraph I of the Examples section so as to obtain an inoculum at 3×10^6 CFU/ml in 15 ml of SC medium.
2 ml of fluconazole solution prepared in the SC medium were then added to 1 ml of this inoculum so as to obtain a final concentration of yeast of 10^6 CFU/ml and of 128 μg/ml in fluconazole. […]
as §9

Assay [4] deals with strain DSY296 of C. albicans. The assay can be described thus: Sensitivity test by HCA microscopy (chitin level, Calcofluor White). The format is cell-based, Candida albicans. Conditions: vs cells in the absence of antifungal agent; 6.5 h at 30° C., SC medium; concentration gradient of Table 1. The protocol: as §1, §10
as §7, with “A pixel threshold was then defined.” left out
as §8

Assay [5] relates to strain SC5314 of C. albicans. The assay can be described thus: Sensitivity test by HCA microscopy (chitin level, Calcofluor White; cell count). The format is cell-based, Candida albicans. Conditions: 6.5 h at 30° C., SC medium; for decrease of the number of cells / increase of the chitin level in the wall of the cells: vs cells in the absence of antifungal agent, concentration gradient of Table 1. On the procedure:
as §1, §2, §3, §4, §5, §6, §11, §12, §13
The strain SC5314 of C. albicans was cultivated as described in paragraph I of the Examples section so as to obtain an inoculum at 3×10^6 CFU/ml in 15 ml of SC medium.
2 ml of fluconazole solution prepared in the SC medium were then added to 1 ml of this inoculum so as to obtain a final concentration of yeast of 10^6 CFU/ml and of 16 μg/ml in fluconazole.
The inoculum was treated in the same way so as to obtain cultures of 10^6 CFU/ml and the following concentrations of fluconazole: 0.015 μg/ml, 0.031 μg/ml, 0.062 μg/ml, 0.125 μg/ml, 0.25 μg/ml, 0.5 μg/ml, 1 μg/ml, 2 μg/ml, 4 μg/ml, 8 μg/ml, 16 μg/ml.
After incubation for 6.5 h at 30° C. with stirring at 200 rpm, 100 μl of each culture were removed and transferred to 96-well plates. This procedure was performed in triplicate, and 2.5 μl of CFW were then added to each well.
The chitin level in the cell wall of the yeasts was then measured by […] analysis (HCA) microscopy, as described in paragraph II of the Examples section, in triplicate for each condition of concentration of fluconazole and without fluconazole.

Structures are written as SMILES.

Turning to `OC(Cn1cncn1)(Cn1cncn1)c1ccc(F)cc1F` [fluconazole], the “phenotype of the strain with respect to the antifungal agent (HCA)” value is on record as “resistant (an increase in the chitin level having a value less than 10% or a decrease in the chitin level of less than 20% or an unchanged chitin level)” in assay [1]; “resistant (an increase in the chitin level having a value less than 10% or a decrease in the chitin level of less than 20% or an unchanged chitin level)” in assay [3] (6.5 h at 30° C., SC medium); “sensitive (an increase in the chitin level greater than or equal to 20% is observed compared to the chitin level of a population of cells of said fungus in the absence of antifungal agent, as well as a decrease in the number of cells of at least 0.3 log)” in assay [5]. Besides, the “decrease in the chitin level in the wall of the cells” value in assay [1] and in assay [4] was “less than 20%” throughout. The “increase in the chitin level in the wall of the cells” value is on record as “less than 10%” in assay [2] and “less than 10%” in assay [3] (vs cells in the absence of antifungal agent, 6.5 h at 30° C., SC medium, concentration gradient of Table 1). Also, the “decrease of the number of cells” value in assay [5] is reported as “at least 0.3 log”. For the same molecule, the “increase of the chitin level in the wall of the cells” value in assay [5] was “greater than or equal to 20%”.
On to `C[C@@H](c1ncncc1F)[C@](O)(Cn1cncn1)c1ccc(F)cc1F` [voriconazole], for which the “phenotype of the strain with respect to the antifungal agent (HCA)” value was “resistant (an increase in the chitin level having a value less than 10% or a decrease in the chitin level of less than 20% or an unchanged chitin level)” in assay [1]; “intermediate (an increase in the chitin level having a value of from 10% to a value less than 20%)” in assay [3] (24 h at 30° C., RPMI medium); “sensitive (an increase in the chitin level greater than or equal to 20% is observed compared to the chitin level of a population of cells of said fungus in the absence of antifungal agent, as well as a decrease in the number of cells of at least 0.3 log)” in assay [5]. Further, the “decrease in the chitin level in the wall of the cells” value in assay [1] and in assay [4] was “less than 20%” in each case. For the same molecule, in assay [2], the “increase in the chitin level in the wall of the cells” value is listed as “less than 10%”. Moreover, the “decrease of the number of cells” value is “less than 0.3 log” in assay [3] (vs cells in the absence of antifungal agent, 24 h at 30° C., RPMI medium) and “at least 0.3 log” in assay [5]. Moreover, the “increase of the chitin level in the wall of the cells” value in assay [3] (vs cells in the absence of antifungal agent, 24 h at 30° C., RPMI medium, concentration gradient of Table 1) was “greater than or equal to 20%”; in assay [5], “greater than or equal to 20%”.
